Patent US8889731B2, “Compounds, compositions and methods for repelling blood-feeding arthropods and deterring their landing and feeding” (Contech Enterprises Inc., priority 2007, dated 2014)

System: Aedes aegypti
Experiment: Arm-in-cage repellent/deterrent bioassay on exposed human forearm (modified WHO protocol), Aedes aegypti
Assay type: in vivo
Procedure: Candidate repellents and deterrents were bioassayed according to a modified protocol from the World Health Organization (1996). At least 1 hour prior to each bioassay, 75 host-seeking non blood-fed, nulliparous, 5- to 8-day-old female Aedes aegypti, Anopheles gambiae or Culex quinquefasciatus were placed into a wood-framed cage (26.5 cm on each side and 42.5 cm high) with a wooden floor, screened mesh sides and top, and a clear acrylic front fitted with a cotton stockinette sleeve (10 cm diameter). The test subject's arm was covered with an elbow-length polyethylene glove with an excised patch (16.6 cm long, 6 cm wide) to expose the ventral forearm of the test subject. Candidate deterrents were formulated in mineral (paraffin) oil and applied to the exposed forearm 5 min prior to inserting the arm into the cage. The inserted arm remained in the cage for 3 min every 30 min. Prior to each 3-min bioassay period, the hand of the untreated arm was inserted into the cage to ascertain that it received 10 bites within 30 sec as an indication of “biting pressure”.
The bioassay was terminated when the treated arm received ≧2 bites in one 3-min bioassay period or one bite in each of two consecutive bioassay periods. The time elapsed from experiment initiation to first bite was recorded as deterrent failure or complete protection time.
N,N-diethyl-m-toluamide formulated in ethanol at a corresponding dose served as a positive control, and mineral oil by itself served as a negative control. On each day, only one candidate compound was tested, ensuring that any residual material in the chamber had disappeared before the next bioassay.
To determine the repellence and deterrence of 8-allylsulfanyloctan-1-ol against Aedes aegypti, a 5%, 10% or 25% formulation of 8-allylsulfanyloctan-1-ol in mineral oil was applied in Experiments 1-3 at a dose of 1.5 mg (total composition) per cm^2 to the skin of the test person, and was bioassayed according to the protocol described under EXAMPLE 2. In Experiment 4, mineral oil by itself served as a negative control and was bioassayed at the same dose (1.5 mg per cm^2) as in Experiments 1-3. Each of Experiments 1-4 was replicated four times.
To compare the repellence and deterrence against Aedes aegypti caused by 8-allylsulfanyloctan-1-ol as a single active ingredient and by 8-allylsulfanyloctan-1-ol in combination with vanillin as a second active ingredient, we tested a 6.7% emulsion of vanillin (Experiment 14), a 6.7% emulsion of 8-allylsulfanyloctan-1-ol (Experiment 15), and a 13.4% emulsion of 8-allylsulfanyloctan-1-ol plus vanillin (1:1 ratio) (Experiment 16). 8-Allylsulfanyloctan-1-ol and vanillin were formulated in Emulsion No. 1 (see EXAMPLE 9). In each of Experiments […], test stimuli were applied at a dose of 1.5 mg per cm^2 to the skin of the test person, and were bioassayed according to the protocol described under EXAMPLE 2. In Experiment 17, Emulsion No. 1 served as a positive control and was tested at the same dose (1.5 mg per cm^2) as in Experiments 14-16.
To be able to compare the repellence and deterrence caused by N,N-diethyl-m-toluamide and by 8-allylsulfanyloctan-1-ol plus vanillin in Emulsion No. 1 (EXAMPLE 9), Experiment 26 tested a 6.7% formulation of N,N-diethyl-m-toluamide in ethanol (the best formulant for DEET) for protection from bites by Aedes egypti. In each replicate, a dose of 1.5 mg per […] was applied to the skin of the test person and bioassayed according to the protocol described under EXAMPLE 2.
To be able to further compare the deterrence caused by N,N-diethyl-m-toluamide with that caused by 8-allylsulfanyloctan-1-ol plus vanillin, Experiment 27 tested a 10.4% formulation of N,N-diethyl-m-toluamide in ethanol, and Experiment 28 tested 8-allylsulfanyloctan-1-ol (10.4%) plus vanillin (7.9%) in Emulsion No. 2 (EXAMPLE 10). […]

With `C=CCSCCCCCCCCO` [Compound 24, 8-allylsulfanyloctan-1-ol] the “protection from bites, average duration” value (5% formulation in mineral oil, 1.5 mg per cm^2, Experiment 1) was 52 min, the “protection from bites, average duration” value (6.7% single active in Emulsion No. 1, 1.5 mg per cm^2, Experiments 14, 15) was 77 min and the “protection from bites, average duration” value (10% formulation in mineral oil, 1.5 mg per cm^2, Experiment 2) was 157 min. The “protection from bites, average duration” value (25% formulation in mineral oil, 1.5 mg per cm^2, Experiment 3) was 305 min.
